Converted amounts (≈) assume the structure as drawn. Read-outs that look alike come from different tables or passages of the source.

Data set [1] is described as follows: Plasma protein binding, equilibrium dialysis, rat plasma. The format is in vitro ADME. To be noted: 5 hours at 37° C., read-out: PPB % bound Rat (converted). The protocol: (§1) The compounds of interest were evaluated for various PK parameters. Specifically CACO permeability/efflux and plasma protein binding (PPP) were determined. Stock solutions were prepared at 10 mM in DMSO for test and reference compounds. Aliquots of the stock solution were diluted to 500× of final concentration (0.5 mM) with DMSO, then further diluted upon the addition of bank PE3-buffer to 20× of final concentration (20 μM). Then test and reference compounds were prepared in plasma at 1 μM. For 0 hour incubation: 25 μL of the plasma spiked with test and reference compounds was transferred into a 96-well sample preparation plate, and then 25 μL blank PB-buffer was added. The samples were quenched by 200 μL of IS solution to prepare [Initial]0h samples. For 5 hours incubation: 100 μL of the plasma spiking with test and reference compounds was loaded on donor side, and 100 μL of blank PB-buffer were loaded on receiver side of the equilibrium dialysis device. Samples were incubated in an air-bath shaker (60 rpm) for 5 hours at 37° C. After 5 hours incubation, 25 μL of samples (from both the donor sides and receiver sides of the dialysis apparatus) was aspirated and added into new sample preparation plates, separately. 25 μL of blank PB-buffer was added to donor side samples and 25 μL of blank plasma was added to receiver side samples to balance the matrix. The samples were quenched with 200 μL of IS solution. The assay plate was shaken at the vibrator (Hangzhou Allsheng, MX100-4A) for 10 min (600 rpm) and then centrifuged at 5,594×g for 15 min (Thermo Multifuge×3R). An aliquot of the 50 μL supernatant was taken from each well and diluted by 50 μL distilled water, then analyzed by UPLC-MS/MS.
In general terms: Equilibrium dialysis compares concentrations on both sides of a semipermeable membrane.

The target in data set [2] is SAE1 (Homo sapiens (Human), UniProt Q9UBE0+Q9UBT2). Description: SAE High Throughput Biochemical Assay (HTRF), 15 min preincubation. The conditions noted are these: read-out: 15 min preincubation HTRF IC50 (μM) Ave, SAE1 12.5 nM, ATP 100 μM. An outline of the steps:
(§2)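 HTRF detection of SUMO transfer from SUMO-GST to UBC9-His (40 nM each) by SAE1 at 12.5 nM used 100 μM ATP in pH 7.5 HEPES buffer with 10 mM MgCl2 and 0.1% BSA. Enzyme and compound were preincubated 15 min at RT and the reaction ran 45 min, with readings after 2 h and overnight.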
In general terms: TR-FRET usually uses a lanthanide donor and a delayed reading to cut background.

Data set [3] addresses SAE1 (Homo sapiens (Human), UniProt Q9UBT2). The description is as above. To be noted: SAE1 12.5 nM, ATP 100 μM. The procedure, abridged: as §2
The test system of data set [4] is sumoylation levels (SUMO 2/3 conjugates) in HCT-116 cells. Nature of the data set: HCT-116 4 Hour Cell Assay (Western, SUMO 2/3 conjugates). Type of data set: cell-based. To be noted: 4 h treatment, Anti-Sumo 2-3 immunoblot, read-out: HCT-116 Western 4 h IC50 (μM) Ave. An outline of the steps:
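IC50 derived from fluorescent immunoblot quantification of SUMO 2/3 conjugate bands, normalized to total protein, after non-reducing SDS-PAGE. Lysis used RIPA plus NEM; exposure was 4 h across 11 concentrations, three-fold serial dilution starting at 25 μM.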
(In general: Immunoblotting shows a protein as a band on a membrane.)

Data set [5] in a line: Plasma protein binding, equilibrium dialysis, dog plasma. To be noted: 5 hours at 37° C., read-out: PPB % bound Dog (converted). Type of data set: in vitro ADME. The protocol:
as §1

Another data set has as its system Caco-2 cells. Nature of the data set: Caco-2 permeability/efflux. To be noted: 10 uM, 37° C., 90 min, pH 7.4. Type of data set: in vitro ADME. The procedure: (§3) Caco-2 cells were obtained from American Tissue Culture Collection (Rockville, MD). The cells were maintained in Modified Eagle's medium (MEM), containing 10% heat-inactivated fetal bovine serum (FBS), and 1% non-essential amino acids, in CO2 at 37° C. Cells were seeded on polycarbonate filter inserts (Millipore, CAT #PSHT 010 R5). The cells were cultured for 21-28 days prior to the permeability experiments. The Lucifer Yellow permeability was checked before and after the assay. Compounds were dissolved at 10 mM in 100% dimethyl sulfoxide (DMSO) and diluted for studies in Hanks Balanced Salt Solution (HBSS, Invitrogen, Cat #14025-092) with 25 mM HEPES, pH 7.4. Compounds were tested at 10 µM in both the apical-to-basolateral (A-B) and basolateral-to-apical (B-A) directions, incubations were conducted at 37° C. for 90 min. At the end of incubation, samples were diluted by assay buffer, and analyzed by LC-MS/MS. The concentrations of the compounds were quantified by standard curve. The first comparator example (Comp. Ex. 1) is the chloro substituted thienodihydropyridine

The nature of data set [6]: Caco-2 permeability/efflux. Type of data set: in vitro ADME. The conditions noted are these: human, Caco-2, pH 7.4; B-A / A-B. The procedure: as §3
The nature of data set [7]: Plasma protein binding, equilibrium dialysis, mouse plasma. Type of data set: in vitro ADME. The conditions noted are these: 5 hours at 37° C., read-out: PPB % bound Mouse (converted). The protocol: as §1
A short description of data set [8]: Plasma protein binding, equilibrium dialysis, human plasma. To be noted: 5 hours at 37° C., read-out: PPB % bound Human (converted). The format is in vitro ADME. The procedure: as §1
A short description of a further data set: Solubility Evaluation. The format is physicochemical. To be noted: kinetic from dmso stock, 1 hour at RT. The procedure: The compounds of interest were evaluated for their solubility in various biological solutions. Specifically, aliquots (8 μL) of reference and test compound stock solutions (10 mM) were added into 792 μL of buffer (PBS, pH7.4, FaSSIF, pH 6.5, or FaSSGF, pH 1.6) respectively (Final DMSO conc.: 1%). Sample tubes were shaken for 1 hour (1000 rpm) at RT. The experiment was calibrated using 300 μM spiked solution (SS) in MeOH/CAN (4:1) by adding 6 μL of 10 mM compound stock solution in 194 μL MeOH/ACN(4:1) ranging from 60 μM to 0.02 μM. The samples were centrifuged (10 min-12000 rpm) to precipitate un-dissolved particles. The supernatants were transferred to a new tube or plate. Supernatants were diluted 10 times and 100 times with 100 mM buffer then analyzed by LC-MS/MS. SGF=simulated gastric fluid, SIF=simulated intestinal fluid, PBS=phosphate buffered saline pH 7.4 Values are noted in μM.

The mark [9] stands for this setting: PBS (phosphate buffered saline), aqueous buffer, phosphate buffered saline pH 7.4, 1% DMSO, read-out: Solubilities PBS.
Setting [10] is: simulated intestinal fluid (FaSSIF, pH 6.5), 1% DMSO, read-out: Solubilities SIF.

Chain of SAE1 (Homo sapiens (Human), UniProt Q9UBE0+Q9UBT2) (Q9UBE0 whole entry): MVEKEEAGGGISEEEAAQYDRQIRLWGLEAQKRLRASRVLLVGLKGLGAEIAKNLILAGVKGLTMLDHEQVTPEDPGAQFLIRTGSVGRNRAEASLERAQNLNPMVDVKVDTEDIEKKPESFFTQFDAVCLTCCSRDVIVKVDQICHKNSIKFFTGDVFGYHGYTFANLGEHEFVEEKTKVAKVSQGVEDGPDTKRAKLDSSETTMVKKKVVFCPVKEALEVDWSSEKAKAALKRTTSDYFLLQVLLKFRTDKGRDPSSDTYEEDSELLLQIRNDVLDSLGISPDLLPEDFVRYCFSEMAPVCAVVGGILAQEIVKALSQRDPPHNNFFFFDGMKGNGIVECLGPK
Chain of SAE1 (Homo sapiens (Human), UniProt Q9UBE0+Q9UBT2) (Q9UBT2 whole entry): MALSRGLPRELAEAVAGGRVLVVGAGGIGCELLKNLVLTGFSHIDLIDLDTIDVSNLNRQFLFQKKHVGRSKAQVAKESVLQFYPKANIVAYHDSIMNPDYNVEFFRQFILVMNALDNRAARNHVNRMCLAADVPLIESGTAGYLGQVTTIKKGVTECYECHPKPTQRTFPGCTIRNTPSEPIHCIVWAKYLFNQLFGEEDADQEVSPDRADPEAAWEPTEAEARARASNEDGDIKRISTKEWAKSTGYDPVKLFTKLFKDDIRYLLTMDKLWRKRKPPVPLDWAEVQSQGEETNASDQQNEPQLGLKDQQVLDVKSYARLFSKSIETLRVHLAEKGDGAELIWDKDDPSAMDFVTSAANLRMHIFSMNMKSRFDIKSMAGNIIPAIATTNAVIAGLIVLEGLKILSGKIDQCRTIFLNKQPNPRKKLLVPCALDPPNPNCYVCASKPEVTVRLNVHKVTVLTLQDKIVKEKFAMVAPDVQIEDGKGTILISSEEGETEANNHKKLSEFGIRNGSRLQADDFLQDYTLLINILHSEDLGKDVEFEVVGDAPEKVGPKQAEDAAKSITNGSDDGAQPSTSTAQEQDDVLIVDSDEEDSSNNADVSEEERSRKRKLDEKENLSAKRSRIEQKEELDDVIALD
Chain of SAE1 (Homo sapiens (Human), UniProt Q9UBT2) (Q9UBE0 whole entry): as the sequence (Q9UBE0 whole entry) above
Chain of SAE1 (Homo sapiens (Human), UniProt Q9UBT2) (Q9UBT2 whole entry): as the sequence (Q9UBT2 whole entry) above

The term IC50 denotes the concentration that inhibits the measured activity by half. A word on the efflux ratio: it is a quotient of directional permeabilities that is used to spot active efflux. On to `CCn1cc(-c2c(F)cccc2[C@@H]2CN(C(=O)/C=C/CNC)Cc3sc(C#N)c(C)c32)c(C(F)(F)F)n1` [Example 217, (S, E)-4-(2-(1-ethyl-3-(trifluoromethyl)-1 H-pyrazol-4-yl)-3-fluorophenyl)-3-methyl-6-(4-(methylamino)but-2-enoyl)-4,5,6,7-tetrahydrothieno[2,3-c]pyridine-2-carbonitrile], for which the fraction unbound at 5 h, 1 μM in data set [1] was 0.051; in [5] it was 0.013; in [7], 0.026; in data set [8], 0.028. Moreover, the IC50 at SAE1 [2] came to 0.13 µM; at SAE1 [3], 0.15 µM; in data set [4], 0.18 µM; in [4] (Homo sapiens, HCT-116, 4 h), 0.101 µM. Further, the values for the Caco-2 apparent permeability (Papp) in the data set with Caco-2 cells (apical-to-basolateral) and in the data set on Caco-2 cells (basolateral-to-apical) were 6 10^-6 cm/s and 14 10^-6 cm/s, respectively. For the same compound, in data set [6], the efflux ratio at 90 min, 10 μM was found to be 2.
`CCn1cc(-c2c(F)cccc2[C@@H]2CN(C(=O)/C=C/[C@H](C)NC)Cc3sc(C#N)cc32)c(C(F)(F)F)n1` [Example 89, (S)-4-(2-(1-Ethyl-3-(trifluoromethyl)-1 H pyrazol-4-yl)-3-fluorophenyl)-6-((S, E)-4-(methylamino)pent-2-enoyl)-4,5,6,7-tetrahydrothieno[2,3-c]pyridine-2-carbonitrile]: the IC50 at SAE1 [2] is 1.13 µM; in data set [4] (Homo sapiens, HCT-116, 4 h), 0.145 µM. The Caco-2 apparent permeability (Papp) was 8 10^-6 cm/s in the data set with Caco-2 cells (apical-to-basolateral) and 11 10^-6 cm/s with Caco-2 cells (basolateral-to-apical). Besides, the results for the solubility at 1 h in the data set “Solubility Evaluation” (setting [9]) and in the data set “Solubility Evaluation” (setting [10]) were 78 µM (≈ 41.5 µg/mL) and 90 µM (≈ 47.8 µg/mL), respectively. The fraction unbound at 5 h, 1 μM in data set [7] was 0.024; in [8] it was 0.029.
`CCn1cc(-c2c(F)cccc2[C@@H]2CN(C(=O)/C=C/[C@@H]3CCCN3)Cc3sc(C#N)cc32)c(C(F)(F)F)n1` [Example 118, (S)-4-(2-(1-Ethyl-3-(trifluoromethyl)-1H-pyrazol-4-yl)-3-fluorophenyl)-6-((E)-3-((S)pyrrolidin-2-yl)acryloyl)-4,5,6,7-tetrahydrothieno[2,3-c]pyridine-2-carbonitrile]: the IC50 stood at 0.29 µM at SAE1 [2] and 0.114 µM in data set [4] (Homo sapiens, HCT-116, 4 h). The Caco-2 apparent permeability (Papp) is 4 10^-6 cm/s in the data set with Caco-2 cells (apical-to-basolateral) and 21 10^-6 cm/s with Caco-2 cells (basolateral-to-apical). Moreover, the solubility at 1 h in the data set “Solubility Evaluation” (setting [9]) is 57 µM (≈ 31 µg/mL); in “Solubility Evaluation” (setting [10]), 70 µM (≈ 38.1 µg/mL). Moreover, the fraction unbound at 5 h, 1 μM in data set [7] is 0.014; in data set [8], 0.032.
Regarding `CCn1cc(-c2c(F)cccc2[C@@H]2CN(C(=O)/C=C/CN(C)C)Cc3sc(C#N)cc32)c(C(F)(F)F)n1` [Example 215, (S,E)-6-(4-(dimethylamino)but-2-enoyl)-4-(2-(1-ethyl-3-(trifluoromethyl)-1 H-pyrazol-4-yl)-3-fluorophenyl)-4,5,6,7-tetrahydrothieno[2,3-c]pyridine-2-carbonitrile], the IC50 came out at 1.35 µM at SAE1 [2] and 0.0856 µM in [4] (Homo sapiens, HCT-116, 4 h). For the same compound, the results for the fraction unbound at 5 h, 1 μM in [5], in data set [7] and in data set [8] were 0.02, 0.023 and 0.04, respectively. The Caco-2 apparent permeability (Papp) is 15 10^-6 cm/s with Caco-2 cells (apical-to-basolateral) and 20 10^-6 cm/s in the data set on Caco-2 cells (basolateral-to-apical). For the same compound, in data set [6], the efflux ratio at 90 min, 10 μM worked out at 1.
For `CCn1cc(-c2ccccc2[C@@H]2CN(C(=O)/C=C/CNC)Cc3sc(C#N)cc32)c(C(F)(F)F)n1` [Example 12, (S, E)-4-(2-(1-Ethyl-3-(trifluoromethyl)-1 H-pyrazol-4-yl)phenyl)-6-(4-(methylamino)but-2-enoyl)-4,5,6,7-tetrahydrothieno[2,3-c]pyridine-2-carbonitrile], the IC50 was 3.33 µM against SAE1 [3] and 0.353 µM in data set [4] (Homo sapiens, HCT-116, 4 h). The Caco-2 apparent permeability (Papp) in the data set with Caco-2 cells (apical-to-basolateral) is 5 10^-6 cm/s; in the data set with Caco-2 cells (basolateral-to-apical), 58 10^-6 cm/s. Besides, the efflux ratio at 90 min, 10 μM in data set [6] is 5. Further, the fraction unbound at 5 h, 1 μM was 0.035 in data set [7] and 0.049 in data set [8].
